Results as given in the supplement of paper PMC10627819.

What was measured:
B. subtilis 168 [1] = assay: fitness (endpoint OD595 vs no drug) (fraction); higher = more growth
In short: (§1)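 Each well of a 384-well plate received 30 µl of culture at OD595 0.01, or 55 µl for S. pneumoniae. TSB, LB Lennox or CY served as media at 37 °C. OD595 was taken every 30 min for 14 h and corrected by subtracting the first reading. Fitness is the optical density at stationary-phase entry divided by the robust mean of no-drug controls, capped at 1.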

S. pneumoniae D39V [2] = assay: as above
In short: as §1

S. aureus DSM 20231 [3] = assay: as above
In short: as §1

B. subtilis 168 [4] = assay: Bliss interaction score (quartile over a dose matrix) (fitness difference); higher = more antagonism (negative = synergy)
In short: (§2)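 Fitness is OD595 at stationary-phase entry relative to the plate's robust no-drug mean, capped at 1. Single-drug fitness was inferred from combinations. The Bliss score is observed minus product-expected fitness, summarised by quartiles over technical, biological and donor/recipient replicates.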

S. pneumoniae D39V [5] = assay: as above
In short: as §2

S. aureus DSM 20231 [6] = assay: as above
In short: as §2

S. aureus Newman [7] = assay: as above
In short: as §2

S. aureus Newman [8] = assay: fitness (endpoint OD595 vs no drug) (fraction); higher = more growth; conditions: one replicate
In short: as §1
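Wherever Bliss interaction score (quartile over a dose matrix) is given: first quartile when negative (synergy) and third quartile when positive (antagonism).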

CCCCCCCCCC(=O)N[C@@H](Cc1c[nH]c2ccccc12)C(=O)N[C@H](CC(N)=O)C(=O)N[C@@H](CC(=O)O)C(=O)N[C@@H]1C(=O)NCC(=O)N[C@@H](CCCN)C(=O)N[C@@H](CC(=O)O)C(=O)N[C@H](C)C(=O)N[C@@H](CC(=O)O)C(=O)NCC(=O)N[C@H](CO)C(=O)N[C@@H]([C@H](C)CC(=O)O)C(=O)N[C@@H](CC(=O)c2ccccc2N)C(=O)O[C@@H]1C [Daptomycin] + CC(=O)NC[C@H]1CN(c2ccc(N3CCOCC3)c(F)c2)C(=O)O1 [Linezolid]
one replicate
Conditions | fitness
B. subtilis 168 [1], first compound 0.125 µg/mL, partner 0.0625 µg/mL | 0.944
B. subtilis 168 [1], first compound 0.25 µg/mL, partner 0.0625 µg/mL | 0.932
B. subtilis 168 [1], first compound 0.5 µg/mL, partner 0.0625 µg/mL | 0.802
B. subtilis 168 [1], first compound 1 µg/mL, partner 0.125 µg/mL | 0.6
B. subtilis 168 [1], first compound 1 µg/mL, partner 0.25 µg/mL | 0.279
B. subtilis 168 [1], first compound 1 µg/mL, partner 0.5 µg/mL | 0.0175
S. aureus DSM 20231 [3], first compound 0.125 µg/mL, partner 0.125 µg/mL | 0.729
S. aureus DSM 20231 [3], first compound 0.125 µg/mL, partner 1 µg/mL | 0.0431
S. aureus DSM 20231 [3], first compound 0.25 µg/mL, partner 0.125 µg/mL | 0.869
S. aureus DSM 20231 [3], first compound 0.25 µg/mL, partner 1 µg/mL | 0.0221
S. aureus DSM 20231 [3], first compound 0.5 µg/mL, partner 1 µg/mL | 0.0214

fitness
Conditions | first compound 0.125 µg/mL | first compound 0.25 µg/mL | first compound 0.5 µg/mL | first compound 1 µg/mL | first compound 2 µg/mL | first compound 4 µg/mL
B. subtilis 168 [1], partner 0.125 µg/mL | 0.604 | 0.605 | 0.508 | – | – | –
B. subtilis 168 [1], partner 0.25 µg/mL | 0.0809 | – | – | – | – | –
B. subtilis 168 [1], partner 0.5 µg/mL | 0.0486 | 0.0567 | 0.0348 | – | – | –
S. aureus DSM 20231 [3], partner 0.125 µg/mL | – | – | 0.844 | 0.928 | 0.951 | –
S. aureus DSM 20231 [3], partner 0.25 µg/mL | 0.629 | 0.595 | 0.651 | 0.823 | 0.775 | –
S. aureus DSM 20231 [3], partner 0.5 µg/mL | 0.19 | 0.177 | 0.257 | 0.319 | 0.335 | –
S. pneumoniae D39V [2], partner 0.105 µg/mL | – | – | – | 0.741 | 0.786 | 0.77
S. pneumoniae D39V [2], partner 0.2 µg/mL | – | – | – | 0.409 | 0.413 | 0.412
S. pneumoniae D39V [2], partner 0.21 µg/mL | – | – | – | 0.651 | 0.689 | 0.689
S. pneumoniae D39V [2], partner 0.4 µg/mL | – | – | – | 0.207 | 0.22 | 0.205
S. pneumoniae D39V [2], partner 0.42 µg/mL | – | – | – | 0.476 | 0.447 | 0.554
S. pneumoniae D39V [2], partner 0.8 µg/mL | – | – | – | 0.0731 | 0.0931 | 0.0732

Conditions | Bliss interaction score
B. subtilis 168 [4] | 0.0563
S. aureus DSM 20231 [6] | 0.0745
S. aureus Newman [7] | 0.0604
S. pneumoniae D39V [5] | -0.141

CCCCCCCCCC(=O)N[C@@H](Cc1c[nH]c2ccccc12)C(=O)N[C@H](CC(N)=O)C(=O)N[C@@H](CC(=O)O)C(=O)N[C@@H]1C(=O)NCC(=O)N[C@@H](CCCN)C(=O)N[C@@H](CC(=O)O)C(=O)N[C@H](C)C(=O)N[C@@H](CC(=O)O)C(=O)NCC(=O)N[C@H](CO)C(=O)N[C@@H]([C@H](C)CC(=O)O)C(=O)N[C@@H](CC(=O)c2ccccc2N)C(=O)O[C@@H]1C [Daptomycin] + COc1cc(Cc2cnc(N)nc2N)cc(OC)c1OC [Trimethoprim]
fitness, B. subtilis 168 [1], one replicate
Conditions | partner 0.1 µg/mL | partner 0.125 µg/mL | partner 0.2 µg/mL | partner 0.25 µg/mL | partner 0.4 µg/mL | partner 0.5 µg/mL | partner 1 µg/mL | partner 2 µg/mL
first compound 0.125 µg/mL | 0.908 | 0.711 | 0.755 | – | 0.533 | – | 0.328 | 0.251
first compound 0.25 µg/mL | ≥ 1 | – | 0.756 | – | 0.555 | – | 0.226 | 0.161
first compound 0.5 µg/mL | 0.918 | – | 0.657 | – | 0.512 | – | 0.144 | 0.149
first compound 1 µg/mL | – | 0.35 | – | 0.22 | – | 0.115 | – | –

fitness
Conditions | first compound 0.125 µg/mL | first compound 0.25 µg/mL | first compound 0.5 µg/mL | first compound 1 µg/mL | first compound 2 µg/mL
B. subtilis 168 [1], partner 0.125 µg/mL | – | 0.692 | 0.659 | – | –
B. subtilis 168 [1], partner 0.25 µg/mL | – | – | 0.552 | – | –
B. subtilis 168 [1], partner 0.5 µg/mL | 0.454 | – | 0.446 | – | –
S. aureus DSM 20231 [3], partner 0.125 µg/mL | – | – | 0.788 | 0.745 | 0.839
S. aureus DSM 20231 [3], partner 0.25 µg/mL | 0.573 | 0.553 | 0.645 | 0.657 | 0.695
S. aureus DSM 20231 [3], partner 0.5 µg/mL | 0.128 | 0.0962 | – | 0.304 | 0.37
S. aureus DSM 20231 [3], partner 1 µg/mL | 0.0396 | 0.0212 | 0.0174 | – | –

Conditions | Bliss interaction score
B. subtilis 168 [4] | 0.0723
S. aureus DSM 20231 [6] | -0.0443
S. aureus Newman [7] | 0.0713
S. pneumoniae D39V [5] | -0.192

CCCCCCCCCC(=O)N[C@@H](Cc1c[nH]c2ccccc12)C(=O)N[C@H](CC(N)=O)C(=O)N[C@@H](CC(=O)O)C(=O)N[C@@H]1C(=O)NCC(=O)N[C@@H](CCCN)C(=O)N[C@@H](CC(=O)O)C(=O)N[C@H](C)C(=O)N[C@@H](CC(=O)O)C(=O)NCC(=O)N[C@H](CO)C(=O)N[C@@H]([C@H](C)CC(=O)O)C(=O)N[C@@H](CC(=O)c2ccccc2N)C(=O)O[C@@H]1C [Daptomycin] + CCC[C@@H]1C[C@@H](C(=O)N[C@@H]([C@H]2O[C@H](SC)[C@H](O)[C@@H](O)[C@H]2O)[C@@H](C)O)N(C)C1 [Lincomycin]
fitness
Conditions | partner 0.1 µg/mL | partner 0.2 µg/mL | partner 0.215 µg/mL | partner 0.4 µg/mL | partner 0.43 µg/mL | partner 0.8 µg/mL | partner 0.86 µg/mL
B. subtilis 168 [1], first compound 0.125 µg/mL | 0.865 | 0.904 | – | 0.863 | – | – | –
B. subtilis 168 [1], first compound 0.25 µg/mL | 0.869 | 0.901 | – | 0.848 | – | – | –
B. subtilis 168 [1], first compound 0.5 µg/mL | 0.937 | 0.905 | – | – | – | – | –
S. aureus DSM 20231 [3], first compound 0.5 µg/mL | 0.962 | 0.821 | – | – | – | – | –
S. aureus DSM 20231 [3], first compound 1 µg/mL | 0.911 | 0.806 | – | – | – | – | –
S. aureus DSM 20231 [3], first compound 2 µg/mL | 0.937 | 0.817 | – | – | – | – | –
S. pneumoniae D39V [2], first compound 1 µg/mL | – | 0.409 | 0.764 | 0.22 | 0.697 | 0.053 | 0.396
S. pneumoniae D39V [2], first compound 2 µg/mL | – | 0.405 | 0.764 | 0.241 | 0.72 | 0.0442 | 0.408
S. pneumoniae D39V [2], first compound 4 µg/mL | – | 0.366 | 0.802 | 0.204 | 0.702 | 0.0329 | 0.411

fitness, B. subtilis 168 [1], one replicate
Conditions | first compound 0.25 µg/mL | first compound 0.5 µg/mL | first compound 1 µg/mL
partner 0.4 µg/mL | – | – | 0.686
partner 0.8 µg/mL | 0.851 | 0.788 | 0.647
partner 1.6 µg/mL | 0.797 | 0.81 | 0.657

Conditions | Bliss interaction score
B. subtilis 168 [4] | -0.0659
S. aureus DSM 20231 [6] | 0.099
S. aureus Newman [7] | 0.0732
S. pneumoniae D39V [5] | -0.133

CC1(C)S[C@@H]2[C@H](NC(=O)[C@H](N)c3ccc(O)cc3)C(=O)N2[C@H]1C(=O)O [Amoxicillin] + CO/N=C(\C(=O)N[C@@H]1C(=O)N2C(C(=O)O)=C(COC(N)=O)CS[C@H]12)c1ccco1 [Cefuroxime]
fitness, S. aureus Newman [8]
Conditions | first compound 0.0625 µg/mL | first compound 0.125 µg/mL | first compound 0.25 µg/mL
partner 0.04875 µg/mL | 0.944 | 0.932 | 0.841
partner 0.0975 µg/mL | 0.895 | 0.804 | 0.747
partner 0.195 µg/mL | 0.895 | 0.805 | 0.772

Conditions | Bliss interaction score
B. subtilis 168 [4] | 0.0792
S. aureus DSM 20231 [6] | -0.127
S. aureus Newman [7] | 0.097
S. pneumoniae D39V [5] | 0.0491
